Test results taken from US20240148821A1, “PHARMACEUTICAL USE OF CYCLIC PEPTIDE COMPOUND” (CHUGAI SEIYAKU KABUSHIKI KAISHA, priority 2021, published 2024).
Numbered stars: 1 amine (or outer) side, 2 acyl side, 3 side chain; on linkers, the order of the positions; unused ones are H or OH. Bridge positions count the residues as written; N and C are the ends. Square brackets hold non-standard residues; d marks the D form. Peptide text beside a SMILES is read from it. * marks the point of attachment. hPhe(3,5-F2-4-CF3) = N[C@@H](CCc1cc(F)c(C(F)(F)F)c(F)c1)C(=O)O; hPhe(3-Cl-4-CF3) = N[C@@H](CCc1ccc(C(F)(F)F)c(Cl)c1)C(=O)O; NMePhe(4-CF3) = CN[C@@H](Cc1ccc(C(F)(F)F)cc1)C(=O)O; NEtPhe(4-Me) = CCN[C@@H](Cc1ccc(C)cc1)C(=O)O; NMeAbu(4,4,4-F3) = CN[C@@H](CC(F)(F)F)C(=O)O; NMePhe(4-Cl) = CN[C@@H](Cc1ccc(Cl)cc1)C(=O)O; NMePhe(4-Me) = CN[C@@H](Cc1ccc(C)cc1)C(=O)O; NMePhe(3-F) = CN[C@@H](Cc1cccc(F)c1)C(=O)O; NMedβ3hAla = C[C@H](CC(=O)[*:2])N(C)[*:1]; NMeGly(cPent) = CN[C@H](C(=O)O)C1CCCC1; Phe(3-I) = N[C@@H](Cc1cccc(I)c1)C(=O)O; Pro(4,4-F2) = O=C(O)[C@@H]1CC(F)(F)CN1; NMeCha = CN[C@@H](CC1CCCCC1)C(=O)O; NMeGly(cPr) = CN[C@H](C(=O)O)C1CC1; NEtLeu = CCN[C@@H](CC(C)C)C(=O)O; NMeChg = CN[C@H](C(=O)O)C1CCCCC1; NMeI = CC[C@H](C)[C@H](NC)C(=O)O; NMeD = CN[C@@H](CC(=O)O)C(=O)O; NMeL = CN[C@@H](CC(C)C)C(=O)O; dNMeAbu = CC[C@@H](NC)C(=O)O; NMeV = CN[C@H](C(=O)O)C(C)C; Pip = O=C(O)[C@@H]1CCCCN1; NMeA = CN[C@@H](C)C(=O)O; NMeAib = CNC(C)(C)C(=O)O; Nle = CCCC[C@H](N)C(=O)O; Piperidide = C1CCN(*)CC1; Pyrrolidide = C1CCN(*)C1; Ac5c = NC1(C(=O)O)CCCC1; Aze = O=C(O)[C@@H]1CCN1; Sar = CNCC(=O)O

Test system: Human pancreatic cancer cell line AsPC-1 (G12D mutation Kras)
Experiment: AsPC-1 cell growth inhibition (AsPC-1 CGI)
Assay type: cell-based
Conditions: read-out: AsPC-1 cell growth inhibition, 50% growth inhibitory concentration (IC50 value); 96 hours, CellTiter-Glo, values classified in ranges
Protocol: Test compounds were serially dilated with dimethyl sulfoxide, and 200 nL was then dispensed to a U-bottom 96-well plate using Labcyte Echo. […] The cell suspension was dispensed to a. plate containing a test compound at 100 μL per well and incubated at 37° C. in a 5% carbon dioxide gas incubator. 96 hours later, 80 μL of CellTiter-Glo (Promega) was added to each well and fluorescence was measured.

Q: `COC[C@@H]1NC(=O)[C@H](CC(C)C)N(C)C(=O)C[C@@H](C(=O)N2CCCCC2)N(C)C(=O)[C@H](C(C)C)N(C)C(=O)C2(CCCC2)NC(=O)[C@@H]2CCCN2C(=O)[C@H](CCc2ccc(C(F)(F)F)c(Cl)c2)NC(=O)CN(C)C(=O)[C@H](CC2CCCCC2)N(C)C(=O)[C@@H]2CCN2C(=O)[C@H](C)N(C)C1=O` [Compound 7] ([NMeL]S(Me)[NMeA][Aze][NMeCha][Sar][hPhe(3-Cl-4-CF3)]P[Ac5c][NMeV][NMeD]-Piperidide; lactam N-11) was tested. Which IC50 did it give?
A: > 0.5 µM

Q: Which IC50 does the source give for `CC[C@H](C)[C@@H]1NC(=O)[C@H](CC(F)(F)F)N(C)C(=O)C[C@@H](C(=O)N2CCCC2)N(C)C(=O)[C@H](C2CCCCC2)N(C)C(=O)C2(CCCC2)NC(=O)[C@@H]2CC(F)(F)CN2C(=O)[C@H](CCc2ccc(C(F)(F)F)c(Cl)c2)NC(=O)CN(C)C(=O)[C@H](CC2CCCCC2)N(C)C(=O)CN(C)C(=O)CN(C)C1=O` [Compound 1357] ([NMeAbu(4,4,4-F3)]I[Sar][Sar][NMeCha][Sar][hPhe(3-Cl-4-CF3)][Pro(4,4-F2)][Ac5c][NMeChg][NMeD]-Pyrrolidide; lactam N-11) here?
A: ≤ 0.02 µM

Q: How did the IC50 turn out when `CC[C@H](C)[C@@H]1NC(=O)[C@H](CC(C)C)N(C)C(=O)C[C@@H](C(=O)N2CCCCC2)N(C)C(=O)[C@H](C2CCCCC2)N(C)C(=O)C2(CCCC2)NC(=O)[C@@H]2CCCCN2C(=O)[C@H](CCc2ccc(C(F)(F)F)c(Cl)c2)NC(=O)CN(C)C(=O)[C@H](CC2CCCCC2)N(C)C(=O)CN(C)C(=O)CN(C)C1=O` [Compound 728] ([NMeL]I[Sar][Sar][NMeCha][Sar][hPhe(3-Cl-4-CF3)][Pip][Ac5c][NMeChg][NMeD]-Piperidide; lactam N-11) was run?
A: > 0.5 µM

Q: Which IC50 does the source give for `CC[C@H](C)[C@@H]1NC(=O)[C@H](CC(C)C)NC(=O)C[C@@H](C(=O)N2CCCCC2)N(C)C(=O)[C@H](C(C)C)N(C)C(=O)C2(CCCC2)NC(=O)[C@@H]2CCCN2C(=O)[C@H](CCc2ccc(C(F)(F)F)c(Cl)c2)NC(=O)CN(C)C(=O)[C@H](CC2CCCCC2)N(C)C(=O)[C@@H]2CCN2C(=O)[C@H](C)N(C)C1=O` [Compound 368] (LI[NMeA][Aze][NMeCha][Sar][hPhe(3-Cl-4-CF3)]P[Ac5c][NMeV][NMeD]-Piperidide; lactam N-11) here?
A: > 0.5 µM

Q: With `CC[C@H](C)[C@@H]1NC(=O)[C@H](CC(C)C)N(C)C(=O)C[C@@H](C(=O)N2CCCCC2)N(C)C(=O)[C@H](C2CC2)N(C)C(=O)C2(CCCC2)NC(=O)[C@@H]2CCCN2C(=O)[C@H](CCc2ccc(C(F)(F)F)c(Cl)c2)NC(=O)CN(C)C(=O)[C@H](CC2CCCCC2)N(C)C(=O)CN(C)C(=O)CN(C)C1=O` [Compound 197] ([NMeL]I[Sar][Sar][NMeCha][Sar][hPhe(3-Cl-4-CF3)]P[Ac5c][NMeGly(cPr)][NMeD]-Piperidide; lactam N-11) as the compound, how does the IC50 read?
A: > 0.5 µM

Q: Which IC50 does the source give for `CCCC[C@@H]1NC(=O)[C@H](Cc2cccc(I)c2)NC(=O)CN(C)C(=O)[C@H](Cc2ccc(Cl)cc2)N(C)C(=O)CN(C)C(=O)CN(C)C(=O)[C@H]([C@@H](C)CC)NC(=O)[C@H](CC(C)C)N(C)C(=O)C[C@@H](C(=O)N2CCCCC2)N(C)C(=O)[C@H](CC(C)C)NC(=O)[C@H](Cc2cccc(F)c2)N(C)C1=O` [Compound 483] ([NMeL]I[Sar][Sar][NMePhe(4-Cl)][Sar][Phe(3-I)][Nle][NMePhe(3-F)]L[NMeD]-Piperidide; lactam N-11) here?
A: > 0.5 µM

Q: With `CC[C@H](C)[C@@H]1NC(=O)[C@H](CC(C)C)N(C)C(=O)C[C@@H](C)N(C)C(=O)[C@H](CC(C)C)NC(=O)C(C)(C)N(C)C(=O)[C@H](CC(C)C)NC(=O)[C@H](CCc2ccc(C(F)(F)F)c(Cl)c2)NC(=O)CN(C)C(=O)[C@H](Cc2ccc(C(F)(F)F)cc2)N(C)C(=O)[C@@H]2CCN2C(=O)CN(C)C1=O` [Compound 1403] (cyclo([Aze][NMePhe(4-CF3)][Sar][hPhe(3-Cl-4-CF3)]L[NMeAib]L[NMedβ3hAla][NMeL]I[Sar])) as the compound, how does the IC50 read?
A: > 0.5 µM

Q: How did the IC50 turn out when `CC[C@H](C)[C@@H]1NC(=O)[C@H](CC(C)C)N(CC)C(=O)C[C@@H](C(=O)N(C)C)N(C)C(=O)[C@H](C2CCCC2)N(C)C(=O)C2(CCCC2)NC(=O)[C@@H]2CCCN2C(=O)[C@H](CCc2ccc(C(F)(F)F)c(Cl)c2)NC(=O)CN(C)C(=O)[C@H](Cc2ccc(C)cc2)N(C)C(=O)[C@@H]2CCN2C(=O)[C@H](C)N(C)C1=O` [Compound 1148] ([NEtLeu]I[NMeA][Aze][NMePhe(4-Me)][Sar][hPhe(3-Cl-4-CF3)]P[Ac5c][NMeGly(cPent)][NMeD]-NMe2; lactam N-11) was run?
A: ≤ 0.02 µM

Q: Which IC50 does the source give for `CC[C@@H]1C(=O)NC2(CCCC2)C(=O)N(C)[C@@H](C(C)C)C(=O)N(C)[C@H](C(=O)N2CCCCC2)CC(=O)N(C)[C@@H](CC(C)C)C(=O)N[C@@H]([C@@H](C)CC)C(=O)N(C)[C@@H](C)C(=O)N2CC[C@H]2C(=O)N(C)[C@@H](CC2CCCCC2)C(=O)N(C)CC(=O)N[C@@H](CCc2ccc(C(F)(F)F)c(Cl)c2)C(=O)N1C` [Compound 1438] ([NMeL]I[NMeA][Aze][NMeCha][Sar][hPhe(3-Cl-4-CF3)][dNMeAbu][Ac5c][NMeV][NMeD]-Piperidide; lactam N-11) here?
A: > 0.5 µM

Q: For `CC[C@H](C)[C@@H]1NC(=O)[C@H](CC(C)C)N(C)C(=O)C[C@@H](C(=O)N(C)C)N(C)C(=O)[C@H]([C@@H](C)CC)N(C)C(=O)C2(CCCC2)NC(=O)[C@@H]2CCCN2C(=O)[C@H](CCc2cc(F)c(C(F)(F)F)c(F)c2)NC(=O)CN(C)C(=O)[C@H](Cc2ccc(C)cc2)N(CC)C(=O)[C@@H]2CCN2C(=O)[C@H](C)N(C)C1=O` [Compound 571] ([NMeL]I[NMeA][Aze][NEtPhe(4-Me)][Sar][hPhe(3,5-F2-4-CF3)]P[Ac5c][NMeI][NMeD]-NMe2; lactam N-11), which IC50 is on record?
A: ≤ 0.02 µM
